Laboratory results taken from patent publication US20250154180A1, “CRK-LIKE (CRKL) ADAPTOR PROTEIN INHIBITORS AND METHODS OF MAKING AND USING THE SAME” (Rutgers, The State University of New Jersey, priority 2022, published 2025).

Legend:
MDA-MB-468 cells = experiment: MTT proliferation assay, MDA-MB-468; format: cell-based
Experimental: MTT assay—The MTT assay was used to detect cell proliferation. Briefly, cells were plated in a 96-well plate at a density of 50,000 cells/well in 200 μl of culture medium with candidate drugs to be tested (DMSO as a negative control). The treated cells were incubated for four hours a 37° C. with a 5% CO2 incubator to allow dark crystals to form at the bottom of the wells. […] After aspirating the culture medium from each well, 100 μl of crystal dissolving solution was added to each well and incubated for 10 minutes at RT. The signal was quantified by measuring the absorbance in each sample at 570 nm using a microplate reader.
Cell proliferation was first determined by MTT assay as confirmation. […] CrkL is known to mediate the activation of both Raf/ERK and PI3K pathways. So, proteins that relate to these two pathways were utilized.

[1] = tested on: TNBC cells (MDA-231 and MDA-468); experiment: Annexin V/PI apoptosis, TNBC (MDA-231 and MDA-468); format: cell-based; conditions: 1 uM, 24 hours
Experimental: Annexin V/PI Staining—Experimental cells were collected, washed with 1×PBS, resuspended in the binding buffer, and stained with an Annexin V-FITC assay Kit (Millipore Sigma). The cells were incubated with 50 μg/ml Annexin V in 1× binding buffer at room temperature for 15 minutes, then 10 μg/ml propidium iodide for another 15 minutes and analyzed by flow cytometry (EPICS XL). Annexin V-positive/PI-negative cells were considered early apoptotic, cells with both Annexin V and PI-positive to be late apoptotic, and Annexin V negative but PI-positive to be “necrotic.” The percent of apoptosis was calculated as the sum of the percentages of both early and late apoptotic cells.
To figure out the features of cytotoxic effects of Pomiferin on breast cancer cells. Pomiferin-treated breast cancer cells were stained with an Annexin V/PI kit and measured them with Flow Cytometry.

[2] = tested on: CrkL phosphorylation by Ab1; experiment: in vitro kinase assay (CrkL phosphorylation by Ab1, western blot); format: biochemical; conditions: 40 μM candidate drug; compared to Gleevec positive control
Experimental: The expression of both CrkL and phosphor-CrkL in the negative control was arbitrarily set as “1”, and other treatments were relatively compared with the negative control. The pCrkL and CrkL were set as the phosphorylation ratio, while the kinase inhibition efficiency was set as (1−pCrkL/CrkL)×100%.
in vitro Kinase Assay—An in vitro kinase assay was conducted to detect CrkL phosphorylation by Ab1 and to determine whether candidate drugs identified in the AlphaScreen assays could inhibit phosphorylation. […] The pTyr207 antibody detected the level of phosphorylated CrkL. […]
To further verify the pCrkL inhibitor, a kinase assay was designed to evaluate the specificity of positive hits. […] The decreased amount of pCrkL can be detected and quantified by this kinase assay. […]
In total, ten candidate drugs (five that bind to Ab1 and five that bind to CrkL) were verified by the in vitro kinase inhibition assay followed by thermal shift analysis. […] For phosphorylated CrkL detection, only the phosphorylation of Tyr207 was specifically detected by the anti-CrkL phosphorylation antibodies (FIG. 3B). […]

[3] = tested on: PBNK killing in BXPC3 cells; experiment: Cr51 release assay, PBNK killing of BXPC3; format: cell-based; conditions: 1 uM overnight
Experimental: In this example, activity of NC5 was evaluated for PBNK and CD147-CAR-NK killing in BXPC3 cells. PBNK or CD147-CAR-NK cells were incubated with 1 uM NC5 overnight, then cells were harvested for Cr51 release assay to check cell cytotoxicity. […] The star symbol indicates the significance of vehicle vs. NC5 of the indicated E:T ratios. *p<0.05, **p<0.01, n=3.

4T1 breast tumor = experiment: 4T1-Luc orthotopic syngeneic breast tumor model; format: in vivo, Balb/c mice; conditions: 5.0 μg/g oral gavage
Text: Syngeneic orthotopic 4T1 breast tumor-bearing mouse model was established by inoculating 5×10^4 4T1-Luc cells mixed with Matrigel were into the left inguinal fat pad of Balb/c mice from Jackson Laboratories. This orthotopic syngeneic breast tumor model is a tool for preclinical testing of anti-cancer drugs or immunotherapy that require an intact immune system to elicit activity.
To test the effects of the disclosed compounds on the xenograft mouse models, the HCC-Sk-Hep1 cell line xenograft model in NSG mice and 4T1-Luc orthotopic syngeneic breast tumor model in Balb/c mice was used. After confirming the palpable tumor in NSG or Balb/c mice. […] Compound III is referred to as “NC5-140-1” and Compound I is referred to as “NC5-140-2” in FIGS. 11A-11C.

AML cell line (MoLM-13) = experiment: CCK-8 cell viability, MoLM-13; format: cell-based, human; conditions: 1 uM, 5 uM, 10 uM; 48 hours
Experimental: In this example, activities of NC5, Compound III, and the known chemotherapeutic, Cytarabine, were evaluated in the AML cell line (MoLM-13). MoLM-13 cells were collected and seeded at 5,000 cells/well in 96-well plates. The cells were incubated for 24 hours before the addition of either DMSO control or drug at various concentrations. After an additional 48 hours of incubation, 3 μL of CCK-8 was added to every well and incubated at 37° C. for 3 hours. Absorbance was measured at 460 nm in a plate reader. […] The related absorbance was normalized and plotted as line graphs. p-values were determined through two tails student t-tests (*=p<0.5, **=p<0.01, ***=p<0.001).

Q: For `CC(C)=CCc1c2c(c3occ(-c4ccc(O)c(O)c4)c(=O)c3c1O)C=CC(C)(C)O2` [Pomiferin, 3′,4′,5-Trihydroxy-6″,6″-dimethyl-6-(3-methylbut-2-en-1-yl)-6″H-pyrano[2″,3″:7,8]isoflavone], which “cell proliferation (MTT)” value (MDA-MB-468 cells; 1 uM, 5 uM and 10 uM, 24 hours) is on record?
A: Its value is “significantly inhibited cell proliferation”.

Q: And the “cell proliferation (MTT)” value (MDA-MB-468 cells; 2.5 μM, 48 hours, vs DMSO)?
A: Its value is “inhibited cell proliferation”.

Q: What about the apoptosis [1] of the same molecule?
A: Its apoptosis is “significantly induced apoptosis”.

Q: What about the “kinase inhibition effect (CrkL phosphorylation)” value [2] of the same molecule?
A: The value was “comparable results similar to the kinase inhibition effect seen with Gleevec”.

Q: And the “PBNK killing (Cr51 release)” value [3]?
A: The value was “increased”.

Q: What about the tumor growth (4T1 breast tumor) of the same molecule?
A: The tumor growth was “steady growth inhibition”.

Q: What about the median survival (4T1 breast tumor; vehicle 25 days) of the same molecule?
A: Its median survival is 38.5 days.

Q: What about the “cell viability (CCK-8)” value (AML cell line (MoLM-13)) of the same molecule?
A: The value was “decreased cell viability”.
